Measured values published in article PMC10745061 (Marine Drugs, 2023).
Where a SMILES comes first, the peptide text is derived from it. Bridges are numbered along the chain shown (N, C = ends).

Tests used:
[1] = tested on: E. coli K12 SBS 1936 biofilm; assay: Effect on established biofilm, MTT assay; format: cell-based, Escherichia coli; conditions: at 2 × MIC (4 μM), 24 h pre-formed biofilm, 16 h treatment in LB, 37 °C
Experimental: Bacterial biofilms play an important role in UTIs, being responsible for their persistence. Therefore, the eradication of mature biofilms is an extremely challenging task because high concentrations or doses of antibacterial agents are required. Here, the ability of HfBRI-25 to disrupt established biofilms was evaluated as a number of viable bacteria in biofilm using the MTT assay. According to our previous data, E. coli K12 SBS 1936 was chosen as a strong biofilm-producer that can form it in different media.
E. coli K12 SBS1936 was grown in LB broth overnight at 37 °C and diluted in the same media to obtain 1 × 10^6 CFU/mL. A total of 100 μL of bacterial suspension was added to each well of the 96-well polystyrene plate and grown at 32 °C and 120 rpm for 24 h. The wells were washed twice with sterile water to remove non-adherent cells. In parallel, 100 μL of peptide or ciprofloxacin solutions, serially diluted in LB medium using a separate 96-well polystyrene plate, were added to each well with pre-formed biofilm and incubated at 37 °C and 180 rpm for 16 h. Biofilm viability was assessed by using the MTT reagent (Sigma). […] Absorbance of each well was measured at 570 nm. Bacterial survival was calculated as a percentage relative to samples without antimicrobial agent. […]

[2] = tested on: E. coli ATCC 25922; conditions: BALB/c mice, n = 5, i.p. infection 10^6 CFU with 2.5% mucin; 10 mg/kg i.p. at 1 h and 4 h after infection; 7 days
[3] = RP-HPLC retention time; format: physicochemical; conditions: semi-preparative RP-HPLC, C18 column, linear gradient 5 to 80% (v/v) acetonitrile in water with 0.1% TFA within 50 min
Experimental: Figure 2 Structure analysis of the novel BRICHOS-related peptides HfBRI-25 and HfBRI-28. (A) Characteristics of the obtained peptides. ^1 Mean Kyte–Doolittle hydrophobicity index (GRAVY) was calculated using the Expasy ProtParam tool. The maximum and minimum values of this index are +4.5 and −4.5 for poly-Ile and poly-Arg sequences, respectively. ^2 Percentage of hydrophobic amino acids was calculated using the APD3 database. ^3 Retention times were measured using semi-preparative reversed-phase high-performance liquid chromatography (RP-HPLC) on a C18 column with a linear gradient from 5 to 80% (v/v) acetonitrile in water containing 0.1% trifluoroacetic acid (TFA) within 50 min. ^4 Molecular masses were calculated by considering the presence of four Cys residues forming two disulfide bonds in the case of HfBRI-25. ^5 Molecular masses were determined experimentally using MALDI-TOF mass spectrometry. (B) Spatial structures of HfBRI-25 and HfBRI-28 were modeled using the AlphaFold algorithm (ColabFold server). The top-rated models, according to predicted local distance difference test (pLDDT) scores, were visualized by the PyMOL software. (C) The CD-spectra of the peptides in water or in the presence of 30 mM DPC micelles. (D) The CONTINLL program was used for CD data analysis. […]

[4] = tested on: E. coli; format: cell-based, Escherichia coli; conditions: panel incl. clinically isolated UPEC, MDR and XDR strains; regardless of resistance profile, biofilm production, presence of serum
Experimental: The clinical isolates were collected and provided by Sechenov First Moscow State Medical University hospital and the State Collection of Pathogenic Microorganisms “Obolensk” (SRCAMB collection). The resistant to conventional antibiotics strains were defined as extensively drug resistant (XDR), according to [47]. Bacterial test cultures were grown in a Mueller–Hinton broth (MHB, Sigma) at 37 °C to mid-log phase and then diluted with the 2× MH medium supplemented with 1.8% NaCl (and, optionally, with fetal bovine serum (FBS, Gibco) at different concentrations) or without salt so that to reach a final cell concentration of 10^6 CFU/mL. Moreover, 50 μL of the obtained bacterial suspension were added to aliquots of 50 μL of the peptide solutions serially diluted with sterilized 0.1% bovine serum albumin (BSA) in 96-well flat-bottom polystyrene microplates (Eppendorf #0030730011). After incubation for 24 h at 37 °C and 950 rpm on the plate thermoshaker (Biosan), minimum inhibitory concentrations (MIC) were determined as the lowest peptide concentrations that prevented growth of a test microorganism observed as visible turbidity. […] In the case of Mycobacterium smegmatis, MICs were determined in the Middlebrook 7H9 medium (HiMedia). The results were expressed as the median values determined on the basis of at least three independent experiments performed in triplicate.

[5] = tested on: Escherichia coli ML-35p; conditions: salt-containing MHB, FBS at different concentrations up to 15%
Source text: The results were expressed as the median values determined on the basis of at least three independent experiments performed in triplicate.

CC[C@H](C)[C@@H]1NC(=O)[C@H](Cc2c[nH]c3ccccc23)NC(=O)[C@H](C(C)C)NC(=O)[C@@H]2CSSC[C@H](NC(=O)[C@H](CCCNC(=N)N)NC(=O)[C@H](CCCNC(=N)N)NC(=O)[C@H](C(C)C)NC(=O)[C@H](CCCNC(=N)N)NC(=O)[C@H](CCCNC(=N)N)NC(=O)CNC(=O)[C@H](CC(N)=O)NC(=O)[C@H](C(C)C)NC(=O)[C@H](CO)NC1=O)C(=O)N[C@@H](Cc1c[nH]c3ccccc13)C(=O)NCC(=O)N[C@@H](CO)C(=O)NCC(=O)N[C@H](C(=O)O)CSSC[C@H](NC(=O)CNC(=O)[C@H](CCCNC(=N)N)NC(=O)[C@@H]1CCCN1C(=O)[C@@H](N)CO)C(=O)N[C@@H](Cc1ccccc1)C(=O)N2 [HfBRI-25] (H-SPRGCFCVWISVNGRRVRRCWGSGC-OH; disulfide 5-25, 7-20; N-terminus and C-terminus assumed)
Bacterial viability inside established biofilm [1]: minimal residual bacterial viability | Survival / therapeutic efficacy [2]: 100% | RP-HPLC Retention Time [3]: 27.5 min | MIC value against all tested E. coli strains [4]: 1 to 2 µM | MIC in the presence of FBS at different concentrations [5]: 1 µM
